Results: PubChem BioAssay (NCI)
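Following 48 hours of exposure in 96-well plates, responses at five concentrations were used to interpolate endpoints linearly. TGI marks complete inhibition of growth.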

What was measured:
Assay in all cases: inhibition of tumour cell growth, NCI panel, 48 h
[1] = tested on: T-47D breast
[2] = tested on: HCT-15 colon
[3] = tested on: MDA-N
[4] = tested on: SK-MEL-2 melanoma
[5] = tested on: SF-295 CNS
[6] = tested on: A549 NSCLC
[7] = tested on: OVCAR-3 ovarian
[8] = tested on: UACC-62 melanoma
[9] = tested on: CCRF-CEM leukemia
[10] = tested on: SR leukemia
[11] = tested on: SK-MEL-5 melanoma
[12] = tested on: HS 578T breast
[13] = tested on: OVCAR-8 ovarian
[14] = tested on: HCC-2998 colon
[15] = tested on: NCI-H460 lung
[16] = tested on: MALME-3M melanoma

Compound	TGI [1] [µM]	TGI [2] [µM]	TGI [3] [µM]	TGI [4] [µM]	TGI [5] [µM]	TGI [6] [µM]	TGI [7] [µM]	TGI [8] [µM]	TGI [9] [µM]	TGI [10] [µM]	TGI [11] [µM]	TGI [12] [µM]	TGI [13] [µM]	TGI [14] [µM]	TGI [15] [µM]	TGI [16] [µM]
COc1cc(OC)nc(-n2c(N)c(C#N)c3ccc([N+](=O)[O-])cc3c2=O)n1	> 100	> 100	> 100	> 100	> 100	> 100	> 100	> 100	> 100	> 100	> 100	> 100	> 100	> 100	> 100	
C/C=C\C(CC(=O)NCCC1CN(S(=O)(=O)c2ccc(C)cc2)c2ccccc21)CC(=O)OC (configuration not stated)	> 100	> 100	> 100	> 100	> 100	> 100	> 100	> 100			> 100	> 100	> 100	> 100	> 100	> 100
O=S(=O)(O)C(=Nc1cccc(Cc2ccccc2)c1)Nc1cccc(Cc2ccccc2)c1	32.1	35.2	47.2	44.6	34.3	51.9		30.9	98	69.7	32.4	45.5	36.2	35.5		32.6
CC(C)OCC1CC(CC(=O)Nc2nncs2)C(=O)O1 (configuration not stated)	> 100	> 100	> 100	> 100	> 100	> 100	> 100	> 100	> 100	> 100	> 100	> 100	> 100	> 100	> 100	
CC(=O)Oc1ccc(-c2cc3ccccc3oc2=O)cc1	> 100	> 100	> 100	> 100	> 100	> 100	70.9		> 100	> 100		> 100	> 100	> 100	> 100	> 100
O=C(CCCN1CCC2(CC1)CC(=O)N(N1CCCCCC1)C2=O)c1ccccc1	> 100	> 100	> 100	> 100	> 100	> 100	> 100	> 100	> 100	> 100	> 100	> 100	> 100			> 100
CC(=O)O[C@H]1[C@@H]2OC(=O)[C@@](O)(CC3CCCO3)[C@@H]2CC(=O)[C@](C)(O)CC/C=C(\C)CCC[C@@H]1C (some centres not stated)	> 100	> 100	49.4	> 100	> 100	> 100	> 100	> 100	68.4		> 100	> 100	> 100	> 100	> 100	> 100
CCCCCCC(=O)O[C@H]1CC[C@H]2[C@@H]3CCC4C/C(=N/NC(=O)c5cccc6c(=O)c7ccccc7[nH]c56)C=C(C)[C@]4(C)[C@H]3CC[C@]12C (some centres not stated)	> 25	> 25	> 25	> 25	> 25	> 25	> 25	> 25	> 25	> 25	> 25	> 25	> 25	> 25		> 25
Cc1ccc(/C=C/c2nnc(N/N=C/c3ccc4c(c3)OCO4)[nH]c2=O)cc1	> 100	> 100	62.4	78.9	> 100	> 100	36.2		45.4	40.9	> 100	34.6	34.7	79.8	57.6	> 100
O=C(c1ccc(Cl)cc1)N(C(=O)N1CCC(c2ccccc2)CC1)c1ccccc1	49.3	> 100	> 100	> 100	> 100		> 100	> 100	77.4		35.2	> 100	> 100			84.6
CCN(CC)/C(Sc1ccccc1)=C(\C(Cl)=C(Cl)Cl)[N+](=O)[O-]	42	34.8	40.2		37.1	52.4	32.7	43.7	20.9		29	81	35.6	34.3	50.3	39.9
Cc1ccc(N(C(=O)Nc2ccccc2)C2=NCC(C)S2)cc1C (configuration not stated)	> 100	44.5	31.9	32.2	85.3	> 100	32		50.6	86	30.7	77.4	91.2	> 10	44.6	40.7
C=CCc1cccc2cc(C(=O)Nc3ccccc3)c(=N)oc12	85.7	> 100	> 100	38.5		> 100	> 100	> 100	> 100	> 100	> 100	> 100	> 100	18.4	> 100	58.7
CCOP(=O)(OCC)C(C)(CC)N/C(=N/C(NC(C)=O)(C(F)(F)F)C(F)(F)F)NC1=NC(C(F)(F)F)(C(F)(F)F)N=C(C(F)(F)F)O1 (configuration not stated)	> 100	> 100	> 100	62.3	82.8	> 100	> 100	> 100	> 100		31.9	> 100	> 100	> 100	> 100	58.2
Nc1cccc(/C=C/C(=O)N2CCN(CCOC(c3ccccc3)c3ccccc3)CC2)c1	33.1	31.5	35.9	29.7	32.1	34.3	32	29.6	26.4	30.9	29.4	45.6	35.6		30.6	31.2
CC1=NN(c2cccc(Cl)c2)C2(SCC(=O)N2c2nc3ccccc3s2)/C1=C\c1cccs1 (configuration not stated)	> 100	54.8	52.4	41.8	78.3	92.8	86.8			30.1	36.7	59	51.8	37.1	69.1	
Cc1cn(C2CC(O)C(COC(=O)NCCC(F)(F)C(F)(F)C(F)(F)C(F)(F)F)O2)c(=O)[nH]c1=O (configuration not stated)	> 100		> 100		> 100	> 100	> 100	> 100	> 100	> 100	> 100	> 100	> 100	> 100	> 100	> 100
CC(C)=CCC/C(=C/CC/C(=C\CCc1ccoc1)C(=O)O)C(=O)O	> 100	> 100	> 100	> 100	> 100	> 100	> 100	> 100	> 100		> 100	> 100	> 100	> 100		> 100
CCOC(=O)Cn1c(=O)c2nc(SC)sc2n(CC)c1=S	> 100	> 100	> 100	> 100	> 100	> 100	> 100		> 100	> 100	> 100	95.8	> 100	> 100	> 100	> 100
CN(C)CCNC(=O)c1cc([N+](=O)[O-])cc2c1Oc1ccccc1O2	69.6		> 100	56.3	> 100	> 100	> 100	39.2	> 100	> 100	> 100	99.8	> 100	24.1	> 100	97.9
Cc1cccc(N(C(=O)Nc2ccc(Cl)c(Cl)c2)C2=NCC(C)S2)c1 (configuration not stated)	> 100	> 100	> 100	> 100	> 100	> 100	> 100		> 100	> 100	45.8	> 100	> 100	> 100	> 100	> 100
CC(C)(C)c1cc(C2=NNC(c3ccccc3)C2)cc(C(C)(C)C)c1O (configuration not stated)	26.8	31.2	28.5	29.3	37.7	34.5	14.6	28		27.5	23	55.6	31.7		29.7	34.7
CN(C)CCN(C)c1ccc2c(=O)n(CCN(C)C)c(=O)n3c4ccccc4c(=O)c1c23	9.77	10.8	2.89	6.84	8.38	22.7	12.6	2.6	0.293		2.71	8.65	7.15	2.05	2.23	3
COc1ccc(-n2cnc3c2NC(C)(C)N=C3C(N)=O)c(OC)c1	> 100	> 100	> 100		> 100	> 100	> 100	> 100	> 100	> 100	> 100	> 100	> 100	> 100	> 100	> 100
O=c1ccn([C@@H]2C[C@@H]2CO)c(=O)[nH]1	> 100	> 100	> 100	> 100		> 100		> 100	> 100	> 100	> 100	> 100	> 100	> 100	> 100	> 100
S=C1N(/N=C/c2c3ccccc3cc3ccccc23)C(=Nc2ccccc2)C(=Nc2ccccc2)N1c1ccccc1	> 100	> 100	> 100	> 100	> 100	> 100	> 100	> 100		> 100	> 100	> 100	> 100	> 100	> 100	> 100
CCCN(CCCc1ccccc1)CCc1ccc2[nH]c(=S)[nH]c2c1	43.2	> 100	41.7	38.4	26	> 100	> 100	74.4		25.1		> 100	> 100	26	26.1	25.5
COc1cc(CO)c(CC(=O)NCCCc2ccccc2)cc1OC	> 100	> 100	> 100	> 100		> 100	> 100	> 100	> 100	> 100	> 100	> 100	> 100	> 100	> 100	> 100
O=C(CCc1ccc(O)c(O)c1)NCCc1cc(O)cc(O)c1	> 100	> 100	48.1	> 100	> 100	> 100	> 100	> 100	> 100	> 100	> 100	> 100	> 100	> 100	> 100	
Cc1ccc(NC2=CC(=O)C(NO)c3ccccc32)cc1 (configuration not stated)	7.63	10.4	6.75	8.99	15.4	10.6	5.57	4			2.92		4.41	25.8	13.3	
